The numbers were not newly measured in patent US20110136913A1, “ASSESSING AND TREATING BREAST CANCER PATIENTS” (priority 2008, published 2011), which cites them from elsewhere.

Molecules are shown by their SMILES.

The subject of this data set is MCF-7 cell lines that stably over express exogenous HER-2. The note with it: MCF-7 cells over expressing HER-2, mouse model.

As to `CC/C(=C(\c1ccccc1)c1ccc(OCCN(C)C)cc1)c1ccccc1` [tamoxifen], the “Effect on tumor growth” value is reported as “potent agonist on tumor growth”.
